The supplement of paper PMC3937590

Columns and labels:
Test in all cases: -log10 GI50 (growth inhibition 50%) (-log10(M)); higher = more potent growth inhibition
[1] = test system: BT474
In short: (§1)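 Breast cancer cell lines were exposed to each compound for 72 hours at nine doses in 1:5 serial dilution, in triplicate, with a luminescence read-out against a time-zero plate. A Gompertz curve was fitted to the dose-response data by nonlinear least squares. The value is minus log10 of GI50, the molar concentration giving the set level of growth inhibition. Values equal to the top dose carry a < qualifier.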

[2] = test system: 600MPE
In short: as §1

[3] = test system: 184A1
In short: as §1

[4] = test system: AU565
In short: as §1

[5] = test system: HCC1954
In short: as §1

[6] = test system: ZR75B
In short: as §1

[7] = test system: MDAMB175VII
In short: as §1

[8] = test system: HCC38
In short: as §1

[9] = test system: MCF7
In short: as §1

[10] = test system: SUM159PT
In short: as §1

[11] = test system: HCC1143
In short: as §1

[12] = test system: HCC1428
In short: as §1

[13] = test system: HCC1419
In short: as §1

[14] = test system: MDAMB415
In short: as §1

[15] = test system: BT549
In short: as §1

[16] = test system: MCF12A
In short: as §1

[17] = test system: MDAMB231
In short: as §1

[18] = test system: MDAMB361
In short: as §1

[19] = test system: HCC2185
In short: as §1

[20] = test system: MDAMB453
In short: as §1

Compound	-log10 GI50 [1]	-log10 GI50 [2]	-log10 GI50 [3]	-log10 GI50 [4]	-log10 GI50 [5]	-log10 GI50 [6]	-log10 GI50 [7]	-log10 GI50 [8]	-log10 GI50 [9]	-log10 GI50 [10]	-log10 GI50 [11]	-log10 GI50 [12]	-log10 GI50 [13]	-log10 GI50 [14]	-log10 GI50 [15]	-log10 GI50 [16]	-log10 GI50 [17]	-log10 GI50 [18]	-log10 GI50 [19]	-log10 GI50 [20]
COc1cc([C@@H]2c3cc4c(cc3[C@@H](O[C@@H]3O[C@@H]5CO[C@@H](C)O[C@H]5[C@H](O)[C@H]3O)[C@H]3COC(=O)[C@H]23)OCO4)cc(OC)c1O [Etoposide]	4.63	5.26	5.08	6.2	6.01	6.06	4.19	6.54	5.13	6.11	5.29	4.47	4.18	4.56	5.89	6.44	5.69	4.85	5.11	5.3
CSCC[C@H](NC(=O)[C@H](Cc1ccccc1)NC[C@@H](NC[C@@H](N)CS)C(C)C)C(=O)O [FTase inhibitor I]	< 4.18	< 4.48	< 4.18	< 4.48	< 4.48	< 4.48	< 4.48	< 4.48	< 4.48	5	< 4.48	< 4.48	< 4.18	< 4.18	< 4.18	< 4.18	< 4.18	< 4.18	< 4.48	< 4.18
O=C1c2ccccc2-[n+]2ccc3c([nH]c4ccccc43)c21 [Fascaplysin]	6.73	6.55	6.4	6.95	6.57	6.39	6.68	6.56	6.72	6.37	6.56	7.43	6.58	7.22	6.28	6.45	6.6	7.09	6.9	7.06
O=c1[nH]c(=O)n([C@H]2C[C@H](O)[C@@H](CO)O2)cc1F [Floxuridine]	3.37	5.81	3.67	4.97	3.99	5.16	4.69	3.79	3.77	4.49	4.08	4.04	2.73	4.5	3.57	4.86	3.32	3.4	3.2	5.79
O=c1[nH]cc(F)c(=O)[nH]1 [Fluorouracil]	3.75	4.11	3.88	4.69	4.79	4.95	3.96	3.72	4.37	4.68	3.76	4.99	3.77	3.66	4.01	4.82	3.75	3.98	3.42	4.02
COc1cc2ncnc(Nc3ccc(F)c(Cl)c3)c2cc1OCCCN1CCOCC1 [Gefitinib]	6.14	5.21	< 4.48	5.97	5.92	4.67	6.55	4.75	< 4.48	5.07	4.93	4.97	5.5	5.09	4.86	6.17	< 4.48	5.03	4.53	5.13
COC1=C2C[C@@H](C)C[C@H](OC)[C@H](O)[C@@H](C)/C=C(\C)[C@H](OC(N)=O)[C@@H](OC)/C=C\C=C(/C)C(=O)NC(=CC1=O)C2=O [Geldanamycin]	7.84	7.43	8.41	7.35	8.14	7.05	7.75	7.56	6.62	8.21	7.1	7.55	7.49	7.52	8.22	7.73	7.65	7.78	7.69	7.69
Cc1cncc2cccc(S(=O)(=O)N3CCCN(C(=O)CN)C[C@@H]3C)c12 [Glycyl H1152]	< 4.18	< 4.18	< 4.18	5.14	< 4.48	< 4.18	< 4.18	5.96	4.67	5.76	5.05	< 4.18	4.77	5.03	5.01	4.9	4.58	4.65	5.62	4.58
CCCCCN(C)CCC(O)(P(=O)(O)O)P(=O)(O)O [Ibandronate sodium]	3.98	3.67	3.81	3.74	4.26	3.84	4.47	4.3	4.31	4.37	4.38	3.89	5.12	4.29	4.53	3.73	4.21	4.83	4.92	3.97
Cc1ccc(NC(=O)c2ccc(CN3CCN(C)CC3)cc2)cc1Nc1nccc(-c2cccnc2)n1 [Imatinib]	4.52	4.62	4.86	4.72	5.04	4.63	5.01	4.45	4.82	4.75	4.53	4.8	4.74	4.64	4.45	4.37	4.82	4.57	4.82	4.95
Cc1ccc(C(=O)N(CCCN)[C@@H](c2nc3cc(Cl)ccc3c(=O)n2Cc2ccccc2)C(C)C)cc1 [Ispinesib]	7.29	7.69	5.84	7.65	7.52	6.89	5.84	7.33	7.42	7.33	7.29	5.37	5.18	7.05	7.34	7.25	7.5	7.46	7.53	7.37
C/C(=C\c1csc(C)n1)[C@@H]1C[C@@H]2O[C@]2(C)CCC[C@H](C)[C@H](O)[C@@H](C)C(=O)C(C)(C)[C@@H](O)CC(=O)N1 [Ixabepilone]	8.42	8.53	6.67	8.42	8.71	6.95	7.03	8.55	9.44	8.16	8.01	7.23	4.93	8.41	8.26	8.13	9.34	8.64	8.32	8.34
Cc1[nH]c2ccccc2c1CCNCc1ccc(/C=C/C(=O)NO)cc1 [LBH589]	7.46	6.72	6.56	6.98	6.43	7.08	6.41	7.45	7.1	6.88	7.09	6.98	7.23	7.66	6.91	6.35	6.68	7.46	7.16	7.31
C[C@]12O[C@H](C[C@]1(O)CO)n1c3ccccc3c3c4c(c5c6ccccc6n2c5c31)CNC4=O [Lestaurtinib]	6.61	5.77	5.87	6.07	5.31	6.34	6.09	7.06	5.84	6.55	6.48	6.3	5.94	6.46	6.19	6.33	6.14	6.45	5.52	6.19
NS(=O)(=O)OC[C@@H]1C[C@@H](n2ccc3c(N[C@H]4CCc5ccccc54)ncnc32)C[C@@H]1O [MLN4924]	6.24	6.49	6.24	6.74	5.35	6.84	6.64	7.3	7.16	6.31	6.58	6.94	6.68	6.95	6.54	7.04	7.03	7.03	5.62	5.81
COC(=O)Nc1nc2cc(C(=O)c3ccccc3)ccc2[nH]1 [Mebendazole]	6.5	5	< 4.18	6.96	6.82	6.81	6.6	6.48	6.22	6.69	6.01	< 4.18	4.72	6.28	6.3	5.74	6.46	6.24	< 4.18	6.75
CN(Cc1cnc2nc(N)nc(N)c2n1)c1ccc(C(=O)N[C@@H](CCC(=O)O)C(=O)O)cc1 [Methotrexate]	< 3.48	5.39	7.18	5.36	8.07	< 3.48	< 3.48	< 3.48	7.34	< 3.48	7.62	< 3.48	7.24	< 3.48	< 3.48	5.22	< 3.48	6.8	< 3.48	< 3.48
Cc1c(O)cccc1C(=O)N[C@@H](CSc1ccccc1)[C@H](O)CN1C[C@H]2CCCC[C@H]2C[C@H]1C(=O)NC(C)(C)C [Nelfinavir]	4.9	5.05	5.48	< 4.48	5.01	5.13	5.15	4.78	4.8	4.76	5.13	5.16	5.66	5.25	4.99	4.64	4.91	4.97	< 4.48	5.2
COc1ccc(C2=N[C@@H](c3ccc(Cl)cc3)[C@@H](c3ccc(Cl)cc3)N2C(=O)N2CCNC(=O)C2)c(OC(C)C)c1 [Nutlin 3a]	4.8	4.81	5.46	4.79	4.76	5.69	5.23	4.67	5.25	4.78	4.67	4.5	< 4.18	4.46	4.37	5.82	< 4.18	4.18	4.81	4.25
